biological target: T1, TLR9 (Homo sapiens, UniProt Q9NR96); experiment: HEK293-Blue-hTLR-9 cells assay; type: cell-based; set-up: host or cells: HEK293 (HEK-Blue hTLR9); settings: HEK293-Blue-hTLR9 cells, ODN2006 stimulation, 20 hrs; read-out: HEK/hTLR9 IC50
T1 sequence (Q9NR96 26-1032): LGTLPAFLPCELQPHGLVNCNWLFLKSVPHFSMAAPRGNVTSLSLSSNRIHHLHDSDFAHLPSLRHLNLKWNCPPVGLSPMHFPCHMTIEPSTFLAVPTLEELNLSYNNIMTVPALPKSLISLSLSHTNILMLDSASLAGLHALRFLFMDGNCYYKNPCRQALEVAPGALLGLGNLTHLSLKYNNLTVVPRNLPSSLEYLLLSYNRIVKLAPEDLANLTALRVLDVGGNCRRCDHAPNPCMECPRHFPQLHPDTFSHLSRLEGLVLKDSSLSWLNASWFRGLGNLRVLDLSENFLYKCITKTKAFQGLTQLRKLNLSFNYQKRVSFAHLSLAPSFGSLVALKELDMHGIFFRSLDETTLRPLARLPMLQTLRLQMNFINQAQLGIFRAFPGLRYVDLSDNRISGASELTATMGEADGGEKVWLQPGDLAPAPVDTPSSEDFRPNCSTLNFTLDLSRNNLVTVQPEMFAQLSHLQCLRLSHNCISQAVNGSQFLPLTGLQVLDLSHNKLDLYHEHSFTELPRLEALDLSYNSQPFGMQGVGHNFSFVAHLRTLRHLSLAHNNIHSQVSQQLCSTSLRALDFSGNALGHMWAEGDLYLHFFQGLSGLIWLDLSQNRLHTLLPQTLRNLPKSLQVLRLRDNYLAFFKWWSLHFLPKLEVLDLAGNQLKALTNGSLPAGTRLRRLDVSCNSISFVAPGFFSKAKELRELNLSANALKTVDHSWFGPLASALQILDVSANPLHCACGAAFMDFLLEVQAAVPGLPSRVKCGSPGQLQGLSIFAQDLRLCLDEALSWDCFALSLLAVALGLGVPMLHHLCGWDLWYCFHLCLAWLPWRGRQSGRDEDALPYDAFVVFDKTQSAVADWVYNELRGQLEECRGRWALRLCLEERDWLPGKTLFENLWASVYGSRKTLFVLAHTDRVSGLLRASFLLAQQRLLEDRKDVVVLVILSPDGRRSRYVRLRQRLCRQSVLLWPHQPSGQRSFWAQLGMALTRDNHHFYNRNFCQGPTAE
Text: A stable HEK293-Blue-hTLR-9 cell line was purchased from InvivoGen (Cat. #: hkb-htlr9, San Diego, California, USA). These cells were originally designed for studying the stimulation of human TLR9 by monitoring the activation of NF-κB. A SEAP (secreted embryonic alkaline phosphatase) reporter gene was placed under the control of the IFN-β minimal promoter fused to five NF-κB and AP-1-binding sites. The SEAP was induced by activating NF-κB and AP-1 via stimulating HEK-Blue hTLR9 cells with TLR9 ligands. Therefore the reporter expression was declined by TLR9 antagonist under the stimulation of a ligand, such as ODN2006 (Cat. #: tlrl-2006-1, Invivogen, San Diego, California, USA), for incubation of 20 hrs. The cell culture supernatant SEAP reporter activity was determined using QiANTI-Blue™ kit (Cat. #: rep-qbl, Invivogen, San Diego, California, USA) at a wavelength of 640 nm, a detection medium that turns purple or blue in the presence of alkaline phosphatase.
HEK293-Blue-hTLR9 cells were incubated at a density of 250,000-450,000 cells/mL in a volume of 170 μL in a 96-well plate in Dulbecco's Modified Eagle's medium (DMEM) containing 4.5 g/L glucose, 50 U/mL penicillin, […], […], 10% (v/v) heat-inactivated fetal bovine serum with addition of 20 μL test compound in a serial dilution in the presence of final DMSO at 1% and 10 μL of 20 μM ODN2006 in above DMEM, perform incubation under 37° C. in a C02 incubator for 20 hrs. Then 20 μL of the supernatant from each well was incubated with 180 μl. Quanti-blue substrate solution at 37° C. for 2 h and the absorbance was read at 620˜655 nm using a spectrophotometer. The signaling pathway that TLR9 activation leads to downstream NF-κB activation has been widely accepted, and therefore similar reporter assay was modified for evaluating TLR9 antagonist.

| SMILES | IC50 |
| --- | --- |
| Cc1cc(N2CC[C@@H](c3ccc(N4CCNCC4)cn3)[C@H](C)C2)c2cnn(C)c2n1 [Example 34, 1,6-dimethyl-4-[(3S,4R)-3-methyl-4-(5-piperazin-1-yl-2-pyridyl)-1-piperidyl]pyrazolo[3,4-b]pyridine] | 165 nM |
| Cc1cc(N2CC[C@H](c3ccc(N4CCNCC4)cn3)[C@@H](C)C2)c2cnn(C)c2n1 [Example 35, 1,6-dimethyl-4-[(3R,4S)-3-methyl-4-(5-piperazin-1-yl-2-pyridyl)-1-piperidyl]pyrazolo[3,4-b]pyridine] | 158 nM |
| COC[C@H]1CN(c2ccc([C@H]3CCN(c4cc(C)nc5c4cnn5C)C[C@@H]3C)nc2)CCN1 [Example 37, 4-[(3R,4S)-4-[5-[(3R)-3-(methoxymethyl)piperazin-1-yl]-2-pyridyl]-3-methyl-1-piperidyl]-1,6-dimethyl-pyrazolo[3,4-b]pyridine] | 332 nM |
| CO[C@H]1CN(c2ccc([C@H]3CCN(c4cc(C)nc5c4cnn5C)C[C@@H]3C)nc2)CC[C@@H]1N [Example 39, (3S,4S)-1-[6-[(3R,4S)-1-(1,6-dimethylpyrazolo[3,4-b]pyridin-4-yl)-3-methyl-4-piperidyl]-3-pyridyl]-3-methoxy-piperidin-4-amine] | 211 nM |
| Cc1cc(N2CC[C@H](c3ccc(N4CCOC[C@@H](N)C4)cn3)[C@@H](C)C2)c2cnn(C)c2n1 [Example 40, (6S)-4-[6-[(3R,4S)-1-(1,6-dimethylpyrazolo[3,4-b]pyridin-4-yl)-3-methyl-4-piperidyl]-3-pyridyl]-1,4-oxazepan-6-amine] | 173 nM |
| Cc1cc(N2CC[C@H](c3ccc(N4CC[C@@H](N)[C@H](F)C4)cn3)[C@@H](C)C2)c2cnn(C)c2n1 [Example 41, (3R,4R)-1-[6-[(3R,4S)-1-(1,6-dimethylpyrazolo[3,4-b]pyridin-4-yl)-3-methyl-4-piperidyl]-3-pyridyl]-3-fluoro-piperidin-4-amine] | 231 nM |

The next lines start with the values.

| IC50 | SMILES |
| --- | --- |
| 238 nM | COC[C@H]1CN(c2cnc([C@@H]3CCN(c4cc(C)nc5c4cnn5C)C[C@H]3C)c(C)c2)CCN1 [Example 29, 4-[(3S,4R)-4-[5-[(3R)-3-(methoxymethyl)piperazin-1-yl]-3-methyl-2-pyridyl]-3-methyl-1-piperidyl]-1,6-dimethyl-pyrazolo[3,4-b]pyridine] |
| 219 nM | Cc1cc(N2CC[C@@H](c3ncc(N4CC[C@@H](N)[C@H](F)C4)cc3C)[C@H](C)C2)c2cnn(C)c2n1 [Example 31, (3R,4R)-1-[6-[(3S,4R)-1-(1,6-dimethylpyrazolo[3,4-b]pyridin-4-yl)-3-methyl-4-piperidyl]-5-methyl-3-pyridyl]-3-fluoro-piperidin-4-amine] |
| 186 nM | Cc1cc(N2CC[C@@H](c3ncc(N4CC(C)(N)C4)cc3C)[C@H](C)C2)c2cnn(C)c2n1 [Example 32, 1-[6-[(3S,4R)-1-(1,6-dimethylpyrazolo[3,4-b]pyridin-4-yl)-3-methyl-4-piperidyl]-5-methyl-3-pyridyl]-3-methyl-azetidin-3-amine] |
| 79 nM | Cc1cc(N2CC[C@@H](c3ncc(N4C[C@H]5NCCO[C@@H]5C4)cc3C)[C@H](C)C2)c2cnn(C)c2n1 [Example 33, (4aR,7aR)-6-[6-[(3S,4R)-1-(1,6-dimethylpyrazolo[3,4-b]pyridin-4-yl)-3-methyl-4-piperidyl]-5-methyl-3-pyridyl]-3,4,4a,5,7,7a-hexahydro-2H-pyrrolo[3,4-b][1,4]oxazine] |
| 170 nM | CO[C@@H]1CN(c2ccc([C@H]3CCN(c4cc(C)nc5c4cnn5C)C[C@@H]3C)nc2)C[C@H]1N [Example 36, (3R,4R)-1-[6-[(3R,4S)-1-(1,6-dimethylpyrazolo[3,4-b]pyridin-4-yl)-3-methyl-4-piperidyl]-3-pyridyl]-4-methoxy-pyrrolidin-3-amine] |
| 192 nM | Cc1cc(N2CC[C@H](c3ccc(N4CC5(CNCCO5)C4)cn3)[C@@H](C)C2)c2cnn(C)c2n1 [Example 38, 2-[6-[(3R,4S)-1-(1,6-dimethylpyrazolo[3,4-b]pyridin-4-yl)-3-methyl-4-piperidyl]-3-pyridyl]-5-oxa-2,8-diazaspiro[3.5]nonane] |
| 203 nM | Cc1cc(N2CC[C@H](c3ccc(N4CC(C)(N)C4)cn3)[C@@H](C)C2)c2cnn(C)c2n1 [Example 43, 1-[6-[(3R,4S)-1-(1,6-dimethylpyrazolo[3,4-b]pyridin-4-yl)-3-methyl-4-piperidyl]-3-pyridyl]-3-methyl-azetidin-3-amine] |
